Data as given in patent publication US20070197485A1, “Therapy and Use of Compounds in Therapy” (MAX-DELBRUECK-CENTRUM FUR MOLEKULARE MEDIZIN, priority 1999, published 2007).

Tests used:
[1] = tested on: TNF production in whole blood of patients with cachexia; assay: Milenia whole blood assay, TNF production (in vitro addition of UDCA / BPi); format: cell-based, human
Procedure: (§1) We have tested the ability of ursodeoxycholic acid (UDCA, FALK Pharma GmbH) and BPi to inhibit LPS-mediated TNF production in whole blood of patients with cachexia. We studied 4 patients with cachexia due to liver cirrhosis. The patients had all weight loss >7.5% compared to their previous normal weight. […] All patients were studied twice on 2 subsequent days (day “−1” and day “0”), see FIG. 9 to 12.
(§2) Methods: Heparinized whole blood was diluted 1:10 with medium ±LPS (50 μg/ml), ±BPi (1 μg/ml), and ±UDCA (1 μg/ml-1 mg/ml) according to the manufacturer's recommendation (Milenia whole blood assay; DPC Biermann, Bad Nauheim, Germany) and incubated for 4 hours at 37° C. In the supernatant, we assessed concentrations of TNF and IL-6 using the semiautomated Immulite system (DPC-Biermann, Bad Nauheim, Germany).

[2] = tested on: IL6 production in whole blood of patients with cachexia; assay: Milenia whole blood assay, IL6 production (in vitro addition of UDCA / BPi); format: cell-based, human
Text: as §1
[…] In the supernatant, we assessed concentrations of TNF and IL-6 using the semiautomated Immulite system (DPC-Biermann, Bad Nauheim, Germany).

[3] = tested on: whole blood TNF production; assay: Whole blood TNF production after therapeutic application of UDCA; format: in vivo, human; conditions: patient 4; after 2 days of UDCA treatment, 3 times 250 mg daily
Procedure: (§3) We have tested the ability of the therapeutic application of ursodeoxycholic acid (UDCA, FALK Pharma GmbH) to lower plasma levels of TNF and IL6 and to lower spontaneous and LPS-stimulated whole blood cytokine production in patients with cachexia.
(§4) We studied in 2 patients with cachexia due to liver cirrhosis plasma cytokine levels after treatment with 3 times 250 mg daily UDCA (FALK Pharma GmbH). The patients had weight loss >7.5% compared to their previous normal weight. The patients were studied at baseline prior to the treatment on 2 subsequent days (day ”−1” and day “0”), and then they were restudied on day 1 (“1”), day 2 (“2”), and day 5 (“5”), see FIGS. 9 and 12.
as §2, with “pg/ml), ±BPI” for “μg/ml), ±BPi”, “ug/ml),” for “μg/ml),”, “ug/ml-1” for “μg/ml-1”, “supernatant and in plasma,” for “supernatant,”

[4] = tested on: whole blood IL6 production; assay: Whole blood IL6 production after therapeutic application of UDCA; format: in vivo, human; conditions: patient 4; after 2 days of UDCA treatment, 3 times 250 mg daily
Procedure: as §3, §4
as §2, with “pg/ml), ±BPI” for “μg/ml), ±BPi”, “ug/ml),” for “μg/ml),”, “ug/ml-1” for “μg/ml-1”, “supernatant and in plasma,” for “supernatant,”

[5] = tested on: monocyte generated cytokine production in response to LPS; conditions: in vitro, in the concentrations used; cited from earlier work
[6] = tested on: LPS-induced TNF-α release; assay: LPS-induced TNF-α release with lipoproteins / LBP (FIG. 4 to 7); format: cell-based; conditions: addition of LBP to a lipoprotein containing serum (FIG. 7)
[7] = 100 ug/ml UDCA, whole blood of patients with cachexia due to liver cirrhosis, 4 hours at 37° C
[8] = 1 mg/ml UDCA, whole blood of patients with cachexia due to liver cirrhosis diluted 1:10, 4 hours at 37° C, on average
[9] = BPi 1 ug/ml, in 6 of 8 experiments, or towards non-detectability, 2 cases stable, p<0.05
[10] = BPi 1 ug/ml, whole blood of patients with cachexia due to liver cirrhosis, no LPS

C[C@H](CCC(=O)O)[C@H]1CC[C@H]2[C@@H]3[C@@H](O)C[C@@H]4C[C@H](O)CC[C@]4(C)[C@H]3CC[C@]12C [UDCA, ursodeoxycholic acid]
reduction of LPS-stimulated TNF production [1, 7]: 42% | reduction of LPS-stimulated TNF production [1, 8]: > 99% | reduction of LPS-stimulated IL6 production [2, 7]: 13% | reduction of LPS-stimulated IL6 production [2, 8]: 97% | LPS-stimulated TNF production lowered [3]: 43.5% | LPS-stimulated IL6 production lowered [4]: 39.6%

C[C@H](CCC(=O)O)[C@H]1CC[C@H]2[C@@H]3[C@H](O)C[C@@H]4C[C@H](O)CC[C@]4(C)[C@H]3CC[C@]12C [chenodeoxycholic acid]
effect on monocyte generated cytokine production in response to LPS [5]: less effective

B1: LBP: LPS binding protein (protein, UniProt P18428 26-481, looked up)
Lipopolysaccharide-binding …: ANPGLVARITDKGLQYAAQEGLLALQSELLRITLPDFTGDLRIPHVGRGRYEFHSLNIHSCELLHSALRPVPGQGLSLSISDSSIRVQGRWKVRKSFFKLQGSFDVSVKGISISVNLLLGSESSGRPTVTASSCSSDIADVEVDMSGDLGWLLNLFHNQIESKFQKVLESRICEMIQKSVSSDLQPYLQTLPVTTEIDSFADIDYSLVEAPRATAQMLEVMFKGEIFHRNHRSPVTLLAAVMSLPEEHNKMVYFAISDYVFNTASLVYHEEGYLNFSITDDMIPPDSNIRLTTKSFRPFVPRLARLYPNMNLELQGSVPSAPLLNFSPGNLSVDPYMEIDAFVLLPSSSKEPVFRLSVATNVSATLTFNTSKITGFLKPGKVKVELKESKVGLFNAELLEALLNYYILNTFYPKFNDKLAEGFPLPLLKRVQLYDLGLQIHKDFLFLGANVQYMRV
LPS-mediated TNF-α production [6]: reduced

B2: BPi: BPi, agent tested to inhibit LPS-mediated TNF production in whole blood; not spelled out in the text (protein, UniProt P17213 32-487, looked up)
Bactericidal …: VNPGVVVRISQKGLDYASQQGTAALQKELKRIKIPDYSDSFKIKHLGKGHYSFYSMDIREFQLPSSQISMVPNVGLKFSISNANIKISGKWKAQKRFLKMSGNFDLSIEGMSISADLKLGSNPTSGKPTITCSSCSSHINSVHVHISKSKVGWLIQLFHKKIESALRNKMNSQVCEKVTNSVSSELQPYFQTLPVMTKIDSVAGINYGLVAPPATTAETLDVQMKGEFYSENHHNPPPFAPPVMEFPAAHDRMVYLGLSDYFFNTAGLVYQEAGVLKMTLRDDMIPKESKFRLTTKFFGTFLPEVAKKFPNMKIQIHVSASTPPHLSVQPTGLTFYPAVDVQAFAVLPNSSLASLFLIGMHTTGSMEVSAESNRLVGELKLDRLLLELKHSNIGPFPVELLQDIMNYIVPILVLPRVNEKLQKGFPLPTPARVQLYNVVLQPHQNFLLFGADVVYK
lowering of spontaneous TNF levels [1, 9]: at least 5 pg/mi | spontaneous production of TNF [1, 10]: reduced significantly | lowering of spontaneous IL6 levels [2, 9]: at least 5 pg/mi | spontaneous production of IL6 [2, 10]: reduced significantly
